Source: the NIST ThermoML archive (doi:10.1021/je5007532)
± gives the expanded uncertainty stated by the source.

Assay: xn = mol fraction of the nth substance listed
Details: for viscosity: 100 kPa, Falling or rolling sphere viscometry; for viscosity / speed of sound / mass density: Liquid; for speed of sound / mass density: 101 kPa; for speed of sound: Sing-around technique in a fixed-path interferometer; for mass density: Vibrating tube method; for surface tension liquid-gas: 294.4 K, Pendant drop shape

CC(C)CC(C)(C)C [2,2,4-trimethylpentane] + CCCCCCC
Details | mass density [kg/m3] | speed of sound [m/s] | viscosity [mPa·s]
293.15 K, x1 = 0.1 | 684.83 ± 0.19 | 1146.5 ± 0.8 | 0.416 ± 0.004
293.15 K, x1 = 0.2001 | 685.71 ± 0.16 | 1141.7 ± 0.8 | 0.423 ± 0.004
293.15 K, x1 = 0.2999 | 686.59 ± 0.17 | 1136.6 ± 0.8 | 0.43 ± 0.004
293.15 K, x1 = 0.4001 | 687.45 ± 0.17 | 1131.6 ± 0.8 | 0.438 ± 0.004
293.15 K, x1 = 0.5001 | 688.28 ± 0.17 | 1127 ± 0.8 | 0.447 ± 0.004
293.15 K, x1 = 0.6 | 689.06 ± 0.17 | 1122 ± 0.8 | 0.456 ± 0.004
293.15 K, x1 = 0.6999 | 689.77 ± 0.17 | 1117.2 ± 0.8 | 0.466 ± 0.004
293.15 K, x1 = 0.8 | 690.5 ± 0.17 | 1112.5 ± 0.8 | 0.477 ± 0.004
293.15 K, x1 = 0.9 | 691.17 ± 0.17 | 1107.7 ± 0.8 | 0.488 ± 0.004
293.15 K, x1 = 1 | 691.84 ± 0.17 | 1103.2 ± 0.8 | 0.501 ± 0.004
298.15 K, x1 = 0.1 | 680.61 ± 0.19 | 1125.3 ± 0.8 | 0.394 ± 0.004
298.15 K, x1 = 0.2001 | 681.5 ± 0.17 | 1120.5 ± 0.8 | 0.4 ± 0.004
298.15 K, x1 = 0.2999 | 682.4 ± 0.17 | 1115.5 ± 0.8 | 0.407 ± 0.004
298.15 K, x1 = 0.4001 | 683.27 ± 0.17 | 1110.5 ± 0.8 | 0.415 ± 0.004
298.15 K, x1 = 0.5001 | 684.12 ± 0.17 | 1105.9 ± 0.8 | 0.423 ± 0.004
298.15 K, x1 = 0.6 | 684.91 ± 0.17 | 1101 ± 0.8 | 0.432 ± 0.004
298.15 K, x1 = 0.6999 | 685.63 ± 0.17 | 1096.2 ± 0.8 | 0.441 ± 0.004
298.15 K, x1 = 0.8 | 686.36 ± 0.17 | 1091.6 ± 0.8 | 0.451 ± 0.004
298.15 K, x1 = 0.9 | 687.05 ± 0.17 | 1086.7 ± 0.8 | 0.462 ± 0.004
298.15 K, x1 = 1 | 687.7 ± 0.17 | 1082 ± 0.8 | 0.473 ± 0.004
303.15 K, x1 = 0.1 | 676.36 ± 0.2 | 1103.9 ± 0.7 | 0.373 ± 0.003
303.15 K, x1 = 0.2001 | 677.27 ± 0.17 | 1099.2 ± 0.8 | 0.379 ± 0.003
303.15 K, x1 = 0.2999 | 678.18 ± 0.17 | 1094.2 ± 0.8 | 0.386 ± 0.004
303.15 K, x1 = 0.4001 | 679.07 ± 0.17 | 1089.3 ± 0.8 | 0.393 ± 0.004
303.15 K, x1 = 0.5001 | 679.93 ± 0.17 | 1084.7 ± 0.8 | 0.4 ± 0.004
303.15 K, x1 = 0.6 | 680.73 ± 0.17 | 1079.9 ± 0.8 | 0.408 ± 0.004
303.15 K, x1 = 0.6999 | 681.46 ± 0.17 | 1075.1 ± 0.8 | 0.417 ± 0.004
303.15 K, x1 = 0.8 | 682.2 ± 0.17 | 1070.5 ± 0.8 | 0.426 ± 0.004
303.15 K, x1 = 0.9 | 682.89 ± 0.17 | 1065.8 ± 0.8 | 0.436 ± 0.004
303.15 K, x1 = 1 | 683.59 ± 0.17 | 1061.4 ± 0.8 | 0.447 ± 0.004
308.15 K, x1 = 0.1 | 672.09 ± 0.2 | 1082.7 ± 0.7 | 0.355 ± 0.003
308.15 K, x1 = 0.2001 | 673.01 ± 0.17 | 1078 ± 0.7 | 0.36 ± 0.003
308.15 K, x1 = 0.2999 | 673.93 ± 0.17 | 1073.1 ± 0.8 | 0.366 ± 0.003
308.15 K, x1 = 0.4001 | 674.83 ± 0.17 | 1068.2 ± 0.8 | 0.373 ± 0.003
308.15 K, x1 = 0.5001 | 675.71 ± 0.17 | 1063.7 ± 0.8 | 0.38 ± 0.003
308.15 K, x1 = 0.6 | 676.52 ± 0.17 | 1058.9 ± 0.8 | 0.387 ± 0.004
308.15 K, x1 = 0.6999 | 677.26 ± 0.17 | 1054.2 ± 0.8 | 0.396 ± 0.004
308.15 K, x1 = 0.8 | 678.02 ± 0.17 | 1049.7 ± 0.8 | 0.404 ± 0.004
308.15 K, x1 = 0.9 | 678.72 ± 0.17 | 1045 ± 0.8 | 0.413 ± 0.004
308.15 K, x1 = 1 | 679.4 ± 0.17 | 1040.4 ± 0.8 | 0.423 ± 0.004
313.15 K, x1 = 0.1 | 667.78 ± 0.2 | 1061.7 ± 0.7 | –
313.15 K, x1 = 0.2001 | 668.71 ± 0.17 | 1057 ± 0.7 | –
313.15 K, x1 = 0.2999 | 669.65 ± 0.17 | 1052.2 ± 0.7 | –
313.15 K, x1 = 0.4001 | 670.57 ± 0.17 | 1047.3 ± 0.8 | –
313.15 K, x1 = 0.5001 | 671.46 ± 0.17 | 1042.8 ± 0.8 | –
313.15 K, x1 = 0.6 | 672.28 ± 0.17 | 1038.1 ± 0.8 | –
313.15 K, x1 = 0.6999 | 673.03 ± 0.17 | 1033.5 ± 0.8 | –
313.15 K, x1 = 0.8 | 673.8 ± 0.17 | 1029 ± 0.8 | –
313.15 K, x1 = 0.9 | 674.52 ± 0.18 | 1024.3 ± 0.8 | –
313.15 K, x1 = 1 | 675.23 ± 0.17 | 1020 ± 0.8 | –
318.15 K, x1 = 0.1 | 663.44 ± 0.2 | 1040.7 ± 0.7 | 0.32 ± 0.003
318.15 K, x1 = 0.2001 | 664.39 ± 0.17 | 1036.1 ± 0.7 | 0.325 ± 0.003
318.15 K, x1 = 0.2999 | 665.34 ± 0.17 | 1031.3 ± 0.7 | 0.33 ± 0.003
318.15 K, x1 = 0.4001 | 666.28 ± 0.17 | 1026.5 ± 0.8 | 0.336 ± 0.003
318.15 K, x1 = 0.5001 | 667.18 ± 0.17 | 1022.1 ± 0.8 | 0.343 ± 0.003
318.15 K, x1 = 0.6 | 668.02 ± 0.17 | 1017.4 ± 0.8 | 0.349 ± 0.003
318.15 K, x1 = 0.6999 | 668.78 ± 0.17 | 1012.8 ± 0.8 | 0.356 ± 0.003
318.15 K, x1 = 0.8 | 669.55 ± 0.18 | 1008.4 ± 0.8 | 0.363 ± 0.003
318.15 K, x1 = 0.9 | 670.28 ± 0.18 | 1003.8 ± 0.8 | 0.372 ± 0.003
318.15 K, x1 = 1 | 670.98 ± 0.17 | 999.3 ± 0.8 | 0.38 ± 0.004
323.15 K, x1 = 0.1 | 659.07 ± 0.2 | 1019.8 ± 0.7 | 0.305 ± 0.003
323.15 K, x1 = 0.2001 | 660.04 ± 0.17 | 1015.2 ± 0.7 | 0.309 ± 0.003
323.15 K, x1 = 0.2999 | 661 ± 0.17 | 1010.5 ± 0.7 | 0.314 ± 0.003
323.15 K, x1 = 0.4001 | 661.95 ± 0.17 | 1005.7 ± 0.7 | 0.32 ± 0.003
323.15 K, x1 = 0.5001 | 662.86 ± 0.17 | 1001.4 ± 0.8 | 0.326 ± 0.003
323.15 K, x1 = 0.6 | 663.71 ± 0.17 | 996.8 ± 0.8 | 0.332 ± 0.003
323.15 K, x1 = 0.6999 | 664.49 ± 0.18 | 992.3 ± 0.8 | 0.338 ± 0.003
323.15 K, x1 = 0.8 | 665.28 ± 0.18 | 987.9 ± 0.8 | 0.345 ± 0.003
323.15 K, x1 = 0.9 | 666.02 ± 0.18 | 983.3 ± 0.8 | 0.353 ± 0.003
323.15 K, x1 = 1 | 666.75 ± 0.18 | 979.2 ± 0.8 | 0.361 ± 0.003
328.15 K, x1 = 0.1 | 654.65 ± 0.2 | 999 ± 0.7 | 0.291 ± 0.003
328.15 K, x1 = 0.2001 | 655.64 ± 0.17 | 994.4 ± 0.7 | 0.295 ± 0.003
328.15 K, x1 = 0.2999 | 656.61 ± 0.17 | 989.8 ± 0.7 | 0.3 ± 0.003
328.15 K, x1 = 0.4001 | 657.59 ± 0.17 | 985.1 ± 0.7 | 0.305 ± 0.003
328.15 K, x1 = 0.5001 | 658.52 ± 0.18 | 980.8 ± 0.7 | 0.311 ± 0.003
328.15 K, x1 = 0.6 | 659.37 ± 0.18 | 976.3 ± 0.8 | 0.316 ± 0.003
328.15 K, x1 = 0.6999 | 660.16 ± 0.18 | 971.8 ± 0.8 | 0.323 ± 0.003
328.15 K, x1 = 0.8 | 660.98 ± 0.18 | 967.4 ± 0.8 | 0.329 ± 0.003
328.15 K, x1 = 0.9 | 661.73 ± 0.18 | 963 ± 0.8 | 0.335 ± 0.003
328.15 K, x1 = 1 | 662.44 ± 0.18 | 958.7 ± 0.8 | 0.343 ± 0.003
333.15 K, x1 = 0.1 | 650.21 ± 0.2 | 978.3 ± 0.7 | 0.276 ± 0.005
333.15 K, x1 = 0.2001 | 651.22 ± 0.18 | 973.9 ± 0.7 | 0.28 ± 0.005
333.15 K, x1 = 0.2999 | 652.2 ± 0.18 | 969.2 ± 0.7 | 0.286 ± 0.005
333.15 K, x1 = 0.4001 | 653.19 ± 0.18 | 964.6 ± 0.7 | 0.29 ± 0.005
333.15 K, x1 = 0.5001 | 654.14 ± 0.18 | 960.4 ± 0.7 | 0.294 ± 0.005
333.15 K, x1 = 0.6 | 655.01 ± 0.18 | 955.8 ± 0.8 | 0.3 ± 0.005
333.15 K, x1 = 0.6999 | 655.81 ± 0.18 | 951.6 ± 0.8 | 0.306 ± 0.005
333.15 K, x1 = 0.8 | 656.64 ± 0.18 | 947.3 ± 0.8 | 0.313 ± 0.005
333.15 K, x1 = 0.9 | 657.4 ± 0.18 | 942.9 ± 0.8 | 0.319 ± 0.005
333.15 K, x1 = 1 | 658.16 ± 0.18 | 938.6 ± 0.8 | 0.326 ± 0.005
338.15 K, x1 = 0.1 | 645.76 ± 0.2 | 957.8 ± 0.7 | –
338.15 K, x1 = 0.2001 | 646.75 ± 0.18 | 953.3 ± 0.7 | –
338.15 K, x1 = 0.2999 | 647.77 ± 0.18 | 948.7 ± 0.7 | –
338.15 K, x1 = 0.4001 | 648.75 ± 0.18 | 944.3 ± 0.7 | –
338.15 K, x1 = 0.5001 | 649.71 ± 0.18 | 940.1 ± 0.7 | –
338.15 K, x1 = 0.6 | 650.6 ± 0.18 | 935.8 ± 0.7 | –
338.15 K, x1 = 0.6999 | 651.41 ± 0.18 | 931.3 ± 0.8 | –
338.15 K, x1 = 0.8 | 652.29 ± 0.18 | 927.2 ± 0.8 | –
338.15 K, x1 = 0.9 | 653.03 ± 0.18 | 922.9 ± 0.8 | –
338.15 K, x1 = 1 | 653.8 ± 0.18 | 918.7 ± 0.8 | –
343.15 K, x1 = 1 | 649.4 ± 0.18 | 899 ± 0.6 | –

Details | surface tension liquid-gas [mN/m]
x1 = 0.1 | 19.9 ± 0.3
x1 = 0.2001 | 19.7 ± 0.3
x1 = 0.2999 | 19.5 ± 0.3
x1 = 0.4001 | 19.4 ± 0.3
x1 = 0.5001 | 19.2 ± 0.3
x1 = 0.6999 | 19 ± 0.3
x1 = 0.8 | 18.9 ± 0.3
x1 = 1 | 18.7 ± 0.4
